What was measured:
cytokinin receptor CRE1 = cytokinin receptor CRE1 (Arabidopsis thaliana, UniProt Q9C5U0, S567G/T1018A); conditions: TM182-CRE1, DOLU+Glu agar, 30° C. for 30 hours
Method: (§1) A culture solution 10 μl (about 800 clones of yeast) of the transformed cells TM182-CRE1, TM182-AHK2, TM182-AHK2Δ and TM182-AHK3 produced by the example 12 was spotted on DOLU+Glu agar media containing 10 μM of trans-zeatin and cultured at 30° C. for 30 hours. After incubation, the growth state of the transformed cells was observed and photographed by a digital camera.
(§2) Culture solutions of the transformed cells TM182-CRE1, TM182-AHK2Δ and TM182-AHK2 produced by the reference example 1 were spotted on DOLU+Glu agar media containing cytokinin in a variety of concentrations (1 nM, 10 nM, 100 nM, 1 μM, 10 μM, 100 μM) and cultured at 30° C. for 30 hours. After incubation, the growth state of the transformed cells was observed and photographed by a digital camera.

cytokinin receptor AHK2 = target: T1, cytokinin receptor AHK2 (Arabidopsis thaliana, UniProt Q9C5U2); conditions: TM182-AHK2, DOLU+Glu agar, 30° C. for 30 hours
T1 sequence (Q9C5U2 1-1176): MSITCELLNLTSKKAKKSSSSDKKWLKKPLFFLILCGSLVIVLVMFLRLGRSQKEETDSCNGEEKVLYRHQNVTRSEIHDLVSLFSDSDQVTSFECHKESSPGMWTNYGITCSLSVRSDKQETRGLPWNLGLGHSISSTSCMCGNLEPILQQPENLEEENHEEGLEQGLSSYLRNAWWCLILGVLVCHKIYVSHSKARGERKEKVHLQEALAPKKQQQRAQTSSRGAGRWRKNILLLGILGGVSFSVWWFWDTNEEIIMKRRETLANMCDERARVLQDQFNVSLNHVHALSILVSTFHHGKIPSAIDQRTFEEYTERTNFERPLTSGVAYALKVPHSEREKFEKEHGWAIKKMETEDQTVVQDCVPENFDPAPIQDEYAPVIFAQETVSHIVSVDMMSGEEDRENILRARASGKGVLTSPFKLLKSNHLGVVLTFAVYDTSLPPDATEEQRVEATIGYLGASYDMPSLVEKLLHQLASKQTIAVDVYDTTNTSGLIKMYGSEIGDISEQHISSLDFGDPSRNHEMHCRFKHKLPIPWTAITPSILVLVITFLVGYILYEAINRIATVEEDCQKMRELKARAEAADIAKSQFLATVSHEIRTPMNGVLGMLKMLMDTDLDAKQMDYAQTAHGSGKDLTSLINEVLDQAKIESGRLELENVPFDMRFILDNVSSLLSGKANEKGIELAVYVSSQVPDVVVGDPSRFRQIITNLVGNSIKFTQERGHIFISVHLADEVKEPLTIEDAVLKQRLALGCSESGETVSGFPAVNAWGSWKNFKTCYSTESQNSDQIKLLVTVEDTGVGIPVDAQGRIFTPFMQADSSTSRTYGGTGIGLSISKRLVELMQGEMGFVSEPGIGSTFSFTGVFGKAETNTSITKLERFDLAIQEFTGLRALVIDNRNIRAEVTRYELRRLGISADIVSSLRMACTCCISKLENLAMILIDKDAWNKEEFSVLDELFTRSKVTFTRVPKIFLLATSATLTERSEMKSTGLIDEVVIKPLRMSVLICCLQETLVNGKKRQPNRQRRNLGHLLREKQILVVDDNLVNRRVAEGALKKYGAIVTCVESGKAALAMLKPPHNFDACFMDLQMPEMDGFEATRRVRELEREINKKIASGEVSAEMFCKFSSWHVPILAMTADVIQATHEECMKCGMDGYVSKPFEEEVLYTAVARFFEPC
Method: as §1, §2

cytokinin receptor AHK3 = target: T2, cytokinin receptor AHK3 (Arabidopsis thaliana, UniProt Q9C5U1); conditions: TM182-AHK3, DOLU+Glu agar, 10 μM, 30° C. for 30 hours
T2 sequence (Q9C5U1 1-1036): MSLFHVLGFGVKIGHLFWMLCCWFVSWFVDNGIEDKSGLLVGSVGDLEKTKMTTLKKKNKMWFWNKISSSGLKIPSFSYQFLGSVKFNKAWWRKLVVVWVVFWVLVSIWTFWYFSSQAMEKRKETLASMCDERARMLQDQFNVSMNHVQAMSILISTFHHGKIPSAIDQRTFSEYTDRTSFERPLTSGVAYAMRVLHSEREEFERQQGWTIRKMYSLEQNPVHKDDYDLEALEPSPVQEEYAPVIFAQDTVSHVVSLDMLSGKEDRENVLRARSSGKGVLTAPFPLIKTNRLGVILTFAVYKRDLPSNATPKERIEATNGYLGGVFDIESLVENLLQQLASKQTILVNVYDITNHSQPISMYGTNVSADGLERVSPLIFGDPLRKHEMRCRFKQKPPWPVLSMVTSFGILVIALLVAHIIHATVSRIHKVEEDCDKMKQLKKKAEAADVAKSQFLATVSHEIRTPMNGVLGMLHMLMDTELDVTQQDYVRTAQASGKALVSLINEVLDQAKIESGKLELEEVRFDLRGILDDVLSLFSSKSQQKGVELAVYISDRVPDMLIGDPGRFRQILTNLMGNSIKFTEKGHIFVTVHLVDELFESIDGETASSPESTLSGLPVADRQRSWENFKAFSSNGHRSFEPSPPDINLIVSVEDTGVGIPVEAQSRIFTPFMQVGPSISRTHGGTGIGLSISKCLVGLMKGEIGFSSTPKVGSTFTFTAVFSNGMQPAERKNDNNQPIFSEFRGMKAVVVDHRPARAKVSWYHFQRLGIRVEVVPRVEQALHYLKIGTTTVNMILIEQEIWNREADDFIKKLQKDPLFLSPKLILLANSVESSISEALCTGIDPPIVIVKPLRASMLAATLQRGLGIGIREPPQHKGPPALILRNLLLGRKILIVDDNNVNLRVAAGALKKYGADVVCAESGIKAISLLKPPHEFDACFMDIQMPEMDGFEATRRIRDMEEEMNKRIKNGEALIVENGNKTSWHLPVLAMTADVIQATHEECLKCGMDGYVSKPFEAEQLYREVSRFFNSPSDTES
Method: as §1

Chain of cytokinin receptor CRE1 (Q9C5U0 24-1080 S567G/T1018A): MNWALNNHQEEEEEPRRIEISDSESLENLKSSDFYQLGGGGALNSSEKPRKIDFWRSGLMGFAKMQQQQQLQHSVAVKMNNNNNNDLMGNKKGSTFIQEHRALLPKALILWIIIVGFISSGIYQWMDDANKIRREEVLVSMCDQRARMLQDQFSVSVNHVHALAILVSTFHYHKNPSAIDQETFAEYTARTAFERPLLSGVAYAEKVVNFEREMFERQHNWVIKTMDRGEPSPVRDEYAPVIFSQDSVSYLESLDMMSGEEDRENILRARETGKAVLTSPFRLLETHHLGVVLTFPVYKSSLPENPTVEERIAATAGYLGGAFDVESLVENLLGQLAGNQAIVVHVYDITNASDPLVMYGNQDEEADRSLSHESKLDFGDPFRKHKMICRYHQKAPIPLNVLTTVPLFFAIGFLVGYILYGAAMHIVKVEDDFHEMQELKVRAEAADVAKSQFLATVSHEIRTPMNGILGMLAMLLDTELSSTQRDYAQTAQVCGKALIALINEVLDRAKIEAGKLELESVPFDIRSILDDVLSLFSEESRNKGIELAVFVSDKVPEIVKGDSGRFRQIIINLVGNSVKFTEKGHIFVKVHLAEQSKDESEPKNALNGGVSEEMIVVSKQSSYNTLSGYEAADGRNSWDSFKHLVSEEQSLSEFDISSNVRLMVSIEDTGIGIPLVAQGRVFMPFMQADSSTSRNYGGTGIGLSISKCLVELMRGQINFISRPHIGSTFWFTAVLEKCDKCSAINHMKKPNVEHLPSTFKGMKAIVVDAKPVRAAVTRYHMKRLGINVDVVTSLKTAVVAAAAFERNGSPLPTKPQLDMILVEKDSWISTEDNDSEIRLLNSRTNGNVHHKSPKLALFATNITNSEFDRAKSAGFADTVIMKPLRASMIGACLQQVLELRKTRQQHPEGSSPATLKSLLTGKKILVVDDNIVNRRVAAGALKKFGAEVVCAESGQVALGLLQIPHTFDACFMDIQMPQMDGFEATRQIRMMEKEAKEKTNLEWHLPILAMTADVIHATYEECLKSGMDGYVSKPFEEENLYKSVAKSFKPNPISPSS

With `C/C(=C\CNc1ncnc2nc[nH]c12)CO` [trans-zeatin] the “lowest observed supply concentration in which the transformed cells could be grown” value (cytokinin receptor CRE1; 1 nM to 100 μM tested) was 10 µM, the “growth state of the transformed cells as compared with media containing no trans-zeatin” value (cytokinin receptor CRE1; 10 μM) was “high growth” and the “lowest observed supply concentration in which the transformed cells could be grown” value (cytokinin receptor AHK2; 1 nM to 100 μM tested) was 1 µM. The “growth state of the transformed cells as compared with media containing no trans-zeatin” value (cytokinin receptor AHK2; 10 μM) was “high growth” and the “growth state of the transformed cells as compared with media containing no trans-zeatin” value (cytokinin receptor AHK3) was “high growth”.

Reference: patent US20050164370A1 (priority 2003, published 2005)
